Active and inactive are the calls of the source. No cut-off for these calls is given here.

Broadly, the Ki is the dissociation constant of the complex between target and ligand, obtained from inhibition or displacement.

Data set [1] in a line: Selectivity ratio of Ki for dopamine D1 receptor to Ki for dopamine D2 receptor in rat forebrain.
For data set [2], the system named is Rattus norvegicus. Put plainly: Induction of locomotor activity in adult rat at 4 umol/kg, ip after 12 to 24 hrs. Format: functional, organism-based.
The target of a further data set is D(2) dopamine receptor (Rattus norvegicus, UniProt P61169). Put plainly: Displacement of [3H]nemonapride from dopamine D2 receptor in rat forebrain. A general note: Loss of bound radioactivity is the signal in a displacement assay; it reports binding, not function.
Sequence of D(2) dopamine receptor (P61169 whole entry): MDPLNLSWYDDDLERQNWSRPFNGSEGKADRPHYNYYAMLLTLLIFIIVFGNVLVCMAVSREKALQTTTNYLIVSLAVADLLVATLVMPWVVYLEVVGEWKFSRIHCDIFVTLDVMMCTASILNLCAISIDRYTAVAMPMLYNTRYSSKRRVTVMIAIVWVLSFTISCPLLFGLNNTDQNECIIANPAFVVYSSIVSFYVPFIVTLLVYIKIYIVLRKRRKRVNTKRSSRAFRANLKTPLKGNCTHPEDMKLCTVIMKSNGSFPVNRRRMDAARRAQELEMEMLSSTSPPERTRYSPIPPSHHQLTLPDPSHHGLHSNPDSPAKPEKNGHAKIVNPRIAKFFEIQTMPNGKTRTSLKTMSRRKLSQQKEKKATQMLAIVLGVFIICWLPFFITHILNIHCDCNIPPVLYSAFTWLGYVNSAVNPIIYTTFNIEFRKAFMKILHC
Another data set has as its target D(1A) dopamine receptor (Rattus norvegicus, UniProt P18901). As to the kind of experiment: Displacement of [3H]SCH23390 from dopamine D1 receptor in rat forebrain.
For data set [3], the system named is Rattus norvegicus. As to the kind of experiment: Toxicity in adult rat assessed as induction of sedation at 4 umol/kg, ip after 12 to 20 hrs. The following applies: in vivo. Format: organism-based.

Sequence of D(1A) dopamine receptor (P18901 whole entry): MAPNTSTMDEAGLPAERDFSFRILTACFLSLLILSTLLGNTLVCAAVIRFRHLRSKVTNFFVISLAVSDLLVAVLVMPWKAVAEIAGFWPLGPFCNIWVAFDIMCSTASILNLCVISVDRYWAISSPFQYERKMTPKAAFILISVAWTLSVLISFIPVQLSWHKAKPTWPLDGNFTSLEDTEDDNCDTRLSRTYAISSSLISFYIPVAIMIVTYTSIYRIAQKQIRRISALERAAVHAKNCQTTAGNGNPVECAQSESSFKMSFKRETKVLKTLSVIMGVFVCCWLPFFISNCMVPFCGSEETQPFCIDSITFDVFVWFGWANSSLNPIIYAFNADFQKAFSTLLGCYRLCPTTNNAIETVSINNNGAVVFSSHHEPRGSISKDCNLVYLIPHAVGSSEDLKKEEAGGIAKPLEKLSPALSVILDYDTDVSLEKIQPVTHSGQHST

For `CCCCC(=O)Oc1cccc2c1-c1cc(OC)cc3c1[C@@H](C2)N(CCC)CC3`, in data set [1], the ratio is greater than 112. The outcome in the data set on Rattus norvegicus [2] was inactive. The Ki was 89 nM on D(2) dopamine receptor and greater than 10000 nM on D(1A) dopamine receptor. Besides, in the data set on Rattus norvegicus [3], the Activity entry is reported as “Toxic”.
In the case of `CCCCC(=O)Oc1cccc2c1-c1cc(OC)cc3c1[C@@H](C2)N(C)CC3`, the ratio in data set [1] came to 8. The Ki is 192 nM on D(2) dopamine receptor and 1480 nM on D(1A) dopamine receptor.
The matching figures for `COc1cc2c3c(c1)-c1c(cccc1OC(C)=O)C[C@H]3N(C)CC2`: 3, 165 nM and 526 nM.
As for `CCCN1CCc2cc(OC)cc3c2[C@H]1Cc1cccc(O)c1-3`, the ratio in data set [1] came to 38.
Regarding `CCCN1CCc2cc(OC)cc3c2[C@H]1Cc1cccc(OC(C)=O)c1-3`, the ratio in data set [1] is greater than 529. Further, the outcome with Rattus norvegicus [2] was Active. Besides, the Ki is 18.9 nM at D(2) dopamine receptor and greater than 10000 nM at D(1A) dopamine receptor.
For `CCCCC(=O)Oc1cccc2c1-c1cccc3c1[C@@H](C2)N(CCC)CC3`, in data set [1], the ratio was greater than 58. The same compound registered a Ki on D(1A) dopamine receptor greater than 20000 nM.
Consider `CN1CCc2cccc3c2[C@H]1Cc1ccc(O)c(O)c1-3` [APOMORPHINE], for which, in data set [1], the ratio turned out to be 532.
Still for that read-out and setting: the value for `COc1cc2c3c(c1)-c1c(O)cccc1C[C@H]3N(C)CC2` was 0.2.
For the compound `CCCN1CCc2cccc3c2[C@H]1Cc1cccc(OC(C)=O)c1-3`, the ratio in data set [1] is greater than 138. This compound also came in with a Ki at D(1A) dopamine receptor greater than 10000 nM.

For the origin of these results see ChEMBL document CHEMBL1139330, “Synthesis and neuropharmacological evaluation of esters of R(-)-N-alkyl-11-hydroxy-2-methoxynoraporphines” (Bioorg Med Chem Lett, 2009).
